Measured values reported in patent US20120309763A1, “ANTIFUNGAL COMPOSITION INTENDED TO BE APPLIED TO A PERFORATED NAIL” (priority 2009, published 2012).

What was measured:
[1] = Diffusion of terbinafine HCl through the layers of the nail, Franz cells (Example 10): dorsal layer; format: in vitro ADME; conditions: 5 days
Source text: This temperature is checked before each withdrawal.

[2] = Diffusion of terbinafine HCl through the layers of the nail, Franz cells (Example 10): intermediate layer
Procedure: For each formulation, 2 nails (1 with the dorsal layer and 1 without the dorsal layer) are used per donor. The treatment time is 5 days with a new application of each formula every day. The amount of formula deposited daily on the surface of the nail is 10 μl/cm2.
For each donor, the thickness of the nails is measured. Then, for each donor, the nails are prepared in the following manner:
4 nails without dorsal layer: for the nails from this group, the dorsal face is removed using a miniature sander in order to reach the intermediate layer by removing 40% of the initial thickness of the nail,
The Franz type diffusion cells used are placed in a thermostatically-controlled bath in order to obtain a temperature of 32±1° C. at the surface of the nail. The nails are placed in the diffusion cell with the ventral side towards the receiving compartment, phosphate buffer (pH 7.4±0.1) containing 0.1% of Volpo (Oleth-20). During the experiment, the diffusion cells are placed in a thermostatically-controlled bath in order to obtain a temperature of 32±1° C. This temperature is checked before each withdrawal. […]
The samples, receiving liquids and nail extracts are then analysed by MS/MS. […]
The procedures of the study and also the amounts of terbinafine HCl in the various layers of the nail, dorsal and intermediate, were carried out and analysed according to the same protocol as before.

Compound	increase of the penetration of terbinafine through the dorsal layer by the presence of the amphoteric agent (×) ([1]; 10% solution with vs without amphoteric agent)	factor of reduction of the amount of terbinafine HCl in the nail by the presence of the amphoteric agent ([1]; Lamisil Spray 1% with vs without amphoteric agent, dorsal layer)	factor of reduction of the amount of terbinafine HCl in the nail by the presence of the amphoteric agent ([2]; Lamisil Spray 1% with vs without amphoteric agent, intermediate layer, 5 days)	factor of better diffusion in the intermediate layer relative to the dorsal layer ([2]; composition with amphoteric agent)
CCCCCCCCCCCC[N+](C)(C)CC(=O)[O-] [amphoteric agent, Lauryl Dimethylaminoacetic Acid Betaine]	3	3	3	–
CN(C/C=C/C#CC(C)(C)C)Cc1cccc2ccccc12.Cl [terbinafine HCl, terbinafine hydrochloride, reference compound]	–	–	–	3
